In general, Ki refers to a measure of affinity in units of concentration, obtained from inhibition or displacement. Lower therefore signals a stronger hold on the target.

This passage reports Reduction, Displacement and Ki results from ChEMBL document CHEMBL1124293, “2,4-Diamino-6,7-dimethoxyquinoline derivatives as alpha 1-adrenoceptor antagonists and antihypertensive agents” (J Med Chem, 1988).

Assay [1] deals with Rattus norvegicus. Nature of the assay: Percent reduction in Spontaneously hypertensive rat blood pressure after 1 h of 3 mg/kg, po administration. Format: functional.
Assay [2] has as its system Rattus norvegicus. Nature of the assay: Percent reduction in Spontaneously hypertensive rat blood pressure after 4.5 hr of 3 mg/kg, po administration. Format: functional.
Assay [3] concerns the target T1, Adrenergic receptor alpha-2 (Rattus norvegicus) (UniProt P22086+P19328+P22909). Nature of the assay: Binding affinity towards alpha-2 adrenergic receptor from rat brain homogenate preparation by displacement of [3H]clonidine at 10e-6 M concentration. Format: tissue-based. On the technique in general: Loss of bound radioactivity is the signal in a displacement assay; it reports binding, not function.

Assay [4] deals with T2, Adrenergic receptor alpha-1 (Rattus norvegicus, UniProt P15823+P23944+P43140).
T2 sequence (P15823 whole entry): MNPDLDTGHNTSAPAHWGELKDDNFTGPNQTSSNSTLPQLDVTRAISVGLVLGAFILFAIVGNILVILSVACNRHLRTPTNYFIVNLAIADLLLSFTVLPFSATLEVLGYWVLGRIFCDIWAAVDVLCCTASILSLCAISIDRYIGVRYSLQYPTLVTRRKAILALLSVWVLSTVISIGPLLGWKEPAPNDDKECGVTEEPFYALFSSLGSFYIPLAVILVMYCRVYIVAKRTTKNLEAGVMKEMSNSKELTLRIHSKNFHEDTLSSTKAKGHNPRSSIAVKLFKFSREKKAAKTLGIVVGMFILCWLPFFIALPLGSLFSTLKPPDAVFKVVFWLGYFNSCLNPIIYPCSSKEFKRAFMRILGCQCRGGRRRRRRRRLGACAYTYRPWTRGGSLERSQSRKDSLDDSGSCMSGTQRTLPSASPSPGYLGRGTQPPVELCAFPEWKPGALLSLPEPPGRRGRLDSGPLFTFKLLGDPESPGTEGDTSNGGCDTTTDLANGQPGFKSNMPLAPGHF
T2 sequence (P23944 whole entry): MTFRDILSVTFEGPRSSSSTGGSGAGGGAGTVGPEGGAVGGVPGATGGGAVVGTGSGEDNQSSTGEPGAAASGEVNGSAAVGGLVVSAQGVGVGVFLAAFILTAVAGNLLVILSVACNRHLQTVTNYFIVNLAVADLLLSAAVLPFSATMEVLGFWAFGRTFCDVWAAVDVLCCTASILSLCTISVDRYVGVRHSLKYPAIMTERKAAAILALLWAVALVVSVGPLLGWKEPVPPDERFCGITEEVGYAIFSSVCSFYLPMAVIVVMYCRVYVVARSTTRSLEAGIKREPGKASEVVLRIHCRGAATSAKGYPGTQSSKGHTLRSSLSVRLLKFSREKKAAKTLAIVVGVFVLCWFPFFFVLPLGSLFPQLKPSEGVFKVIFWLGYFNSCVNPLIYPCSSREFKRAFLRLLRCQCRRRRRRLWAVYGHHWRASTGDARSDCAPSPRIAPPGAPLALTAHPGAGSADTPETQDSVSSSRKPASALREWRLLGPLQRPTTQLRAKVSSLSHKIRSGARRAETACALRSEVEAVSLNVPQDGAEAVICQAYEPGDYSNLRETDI
T2 sequence (P43140 whole entry): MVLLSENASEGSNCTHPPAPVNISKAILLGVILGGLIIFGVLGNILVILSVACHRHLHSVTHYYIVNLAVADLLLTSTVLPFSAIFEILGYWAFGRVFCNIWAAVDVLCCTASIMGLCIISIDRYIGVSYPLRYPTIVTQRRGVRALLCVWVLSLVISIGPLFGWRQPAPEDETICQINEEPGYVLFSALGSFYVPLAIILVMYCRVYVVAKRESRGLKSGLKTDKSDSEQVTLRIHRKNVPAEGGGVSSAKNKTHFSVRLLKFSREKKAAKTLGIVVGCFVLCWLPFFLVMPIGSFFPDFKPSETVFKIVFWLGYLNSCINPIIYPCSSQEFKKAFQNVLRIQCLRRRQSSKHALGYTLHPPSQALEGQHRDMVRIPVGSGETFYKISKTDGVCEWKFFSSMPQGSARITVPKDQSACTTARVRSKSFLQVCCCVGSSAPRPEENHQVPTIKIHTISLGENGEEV
Briefly: Binding affinity towards alpha-1 adrenergic receptor from rat brain homogenate preparation by displacement of [3H]prazosin. It is filed as tissue-based.

The subject of assay [5] is Rattus norvegicus. Briefly: Percent reduction in Spontaneously hypertensive rat blood pressure after 1 hr of 3 mg/kg, po administration. Format: functional.
The target of assay [6] is T3, Adrenergic receptor alpha-2 (Rattus norvegicus, UniProt P22086+P19328+P22909).
T3 sequence (P22086 whole entry): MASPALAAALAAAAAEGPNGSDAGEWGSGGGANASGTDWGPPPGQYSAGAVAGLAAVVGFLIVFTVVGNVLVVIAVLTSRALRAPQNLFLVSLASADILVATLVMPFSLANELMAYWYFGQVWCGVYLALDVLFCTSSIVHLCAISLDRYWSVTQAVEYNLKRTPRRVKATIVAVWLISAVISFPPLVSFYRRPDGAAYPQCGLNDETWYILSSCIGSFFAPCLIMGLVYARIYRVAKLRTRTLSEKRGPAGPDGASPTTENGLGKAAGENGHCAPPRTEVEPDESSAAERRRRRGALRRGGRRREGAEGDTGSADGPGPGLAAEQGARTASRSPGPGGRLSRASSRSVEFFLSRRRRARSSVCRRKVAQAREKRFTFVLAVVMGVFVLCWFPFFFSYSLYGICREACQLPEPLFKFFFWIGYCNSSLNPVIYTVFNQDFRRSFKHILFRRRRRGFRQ
T3 sequence (P19328 whole entry): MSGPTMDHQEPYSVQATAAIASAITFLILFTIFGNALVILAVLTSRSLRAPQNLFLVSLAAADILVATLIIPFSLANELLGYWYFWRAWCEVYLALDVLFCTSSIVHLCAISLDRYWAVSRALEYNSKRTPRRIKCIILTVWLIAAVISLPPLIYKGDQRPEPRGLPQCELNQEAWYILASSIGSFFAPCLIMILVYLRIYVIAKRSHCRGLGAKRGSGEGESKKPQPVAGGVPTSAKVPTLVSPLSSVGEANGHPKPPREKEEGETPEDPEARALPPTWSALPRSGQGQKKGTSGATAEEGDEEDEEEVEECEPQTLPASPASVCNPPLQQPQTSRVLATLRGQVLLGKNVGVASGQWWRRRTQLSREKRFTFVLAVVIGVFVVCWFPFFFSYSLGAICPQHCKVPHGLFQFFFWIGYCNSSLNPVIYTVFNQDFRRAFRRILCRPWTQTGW
T3 sequence (P22909 whole entry): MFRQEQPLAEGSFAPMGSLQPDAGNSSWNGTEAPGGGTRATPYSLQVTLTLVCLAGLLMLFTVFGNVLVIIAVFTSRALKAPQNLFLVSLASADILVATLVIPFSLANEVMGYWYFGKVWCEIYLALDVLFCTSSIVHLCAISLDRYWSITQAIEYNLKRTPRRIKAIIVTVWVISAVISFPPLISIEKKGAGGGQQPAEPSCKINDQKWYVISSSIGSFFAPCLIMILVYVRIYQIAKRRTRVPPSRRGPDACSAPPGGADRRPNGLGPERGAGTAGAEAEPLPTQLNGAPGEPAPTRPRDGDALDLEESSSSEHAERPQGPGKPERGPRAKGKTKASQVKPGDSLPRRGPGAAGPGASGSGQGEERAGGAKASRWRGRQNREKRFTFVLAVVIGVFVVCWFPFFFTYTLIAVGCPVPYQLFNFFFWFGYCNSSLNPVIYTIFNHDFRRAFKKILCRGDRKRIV
Briefly: Binding affinity towards alpha-2 adrenergic receptor from rat brain homogenate preparation by displacement of [3H]clonidine. It is filed as tissue-based.

In assay [7] the target is T1, Adrenergic receptor alpha-2 (Rattus norvegicus). Nature of the assay: Binding affinity towards alpha-2 adrenergic receptor from rat brain homogenate preparation by displacement of [3H]clonidine at 10E-6 M. It is filed as tissue-based.
Assay [8] has the same target. Briefly: Binding affinity towards alpha-2 adrenergic receptor from rat brain homogenate preparation by displacement of [3H]clonidine at 10e-6 M. It is filed as tissue-based.

For the compound `COc1cc2nc(N3CCN(C(=O)C4COc5ccccc5O4)CC3)cc(N)c2cc1OC` (stereo not drawn), the Reduction with Rattus norvegicus [1] was 6%; with Rattus norvegicus [2], 13%. Besides, the Displacement in assay [3] was less than 50%. The Ki in assay [4] is 0.81 nM.

For the compound `COc1cc2nc(N3CCN(C(=O)c4ccco4)CC3)cc(N)c2cc1OC`, the figures for the Reduction with Rattus norvegicus [2] and in the assay with Rattus norvegicus [5] were 25% and 32%, respectively. Also, in assay [3], the Displacement is less than 50%. The compound also returned a Ki in assay [4] of 0.14 nM.

As for `COc1cc2nc(N3CCN(c4ccccc4)CC3)cc(N)c2cc1OC`, the Reduction in the assay on Rattus norvegicus [1] is given as 8%; in the assay with Rattus norvegicus [2] it was 24%. The Ki in assay [4] was 1.72 nM; in assay [6], 51.6 nM.

On to `COc1cc2nc(N3CCCCC3)cc(N)c2cc1OC`, for which the Reduction with Rattus norvegicus [1] and with Rattus norvegicus [2] was 6% in each case. For the same compound, the Displacement in assay [3] is less than 50%. This compound yielded a Ki in assay [4] of 2.93 nM.

As for `COc1cc2nc(N(C)C)cc(N)c2cc1OC`, the Reduction in the assay on Rattus norvegicus [1] amounted to 12%; in the assay on Rattus norvegicus [2], 11%. This compound registered a Displacement in assay [7] of less than 50%.

For the compound `COc1cc2nc(N3CCN(C(=O)c4ccco4)CC3)nc(N)c2cc1OC` [PRAZOSIN], the results for the Reduction in the assay on Rattus norvegicus [1] and in the assay on Rattus norvegicus [2] were 24% and 15%, respectively.

For the compound `COc1cc2nc(N3CCN(c4nccc(N(C)C)n4)CC3)cc(N)c2cc1OC`, the Reduction stood at 16% with Rattus norvegicus [1] and 19% in the assay with Rattus norvegicus [2]. In addition, the Ki in assay [4] stood at 0.46 nM; in assay [6] it was 55.3 nM.

As for `COc1cc2nc(N3CCN(C(=O)Nc4ccccc4)CC3)cc(N)c2cc1OC`, the Reduction with Rattus norvegicus [1] is given as 20%; with Rattus norvegicus [2] it was 25%. For the same compound, the Ki was determined as 0.34 nM in assay [4] and 66 nM in assay [6].

As for `CCOc1ccnc(N2CCN(c3cc(N)c4cc(OC)c(OC)cc4n3)CC2)n1`, the values for the Reduction with Rattus norvegicus [1] and in the assay with Rattus norvegicus [2] were 19% and 22%, respectively. Moreover, in assay [3], the Displacement was less than 50%. In assay [4], this compound registered a Ki of 0.42 nM.

As to `COc1cc2nc(N3CCNCC3)cc(N)c2cc1OC`, the results for the Reduction with Rattus norvegicus [1] and with Rattus norvegicus [2] were 11% and 14%, respectively. In assay [3], this compound gave a Displacement of less than 50%. This compound showed a Ki in assay [4] of 30.06 nM.

For `COc1cc2nc(N3CCN(C(=O)c4ccccc4)CC3)cc(N)c2cc1OC`, the Reduction with Rattus norvegicus [1] and in the assay with Rattus norvegicus [2] was 19% each time. For the same compound, the Ki in assay [4] is given as 0.49 nM. The compound further came in with a Displacement in assay [8] of less than 50%.

On to `C=CCNC(=O)N1CCN(c2cc(N)c3cc(OC)c(OC)cc3n2)CC1`, for which the Reduction is 15% in the assay on Rattus norvegicus [1] and 17% with Rattus norvegicus [2]. This compound also showed a Displacement in assay [3] of less than 50%. In assay [4], the Ki worked out at 0.29 nM.

Take `COc1cc2nc(N3CCN(Cc4ccccc4)CC3)cc(N)c2cc1OC`: the Reduction turned out to be 8% with Rattus norvegicus [1] and 10% in the assay with Rattus norvegicus [2].

For `COc1cc2nc(N3CCN(c4nccc(C)n4)CC3)cc(N)c2cc1OC`, the Reduction came to 10% with Rattus norvegicus [1] and 8% in the assay with Rattus norvegicus [2]. This compound also came in with a Displacement in assay [3] of less than 50%. This compound also displayed a Ki in assay [4] of 0.63 nM.

`CCCNC(=O)N1CCN(c2cc(N)c3cc(OC)c(OC)cc3n2)CC1`: the results for the Reduction in the assay on Rattus norvegicus [1] and with Rattus norvegicus [2] were 3% and 8%, respectively. In assay [3], this compound returned a Displacement of less than 50%. Besides, the Ki in assay [4] was determined as 0.44 nM.

As for `COc1cc2nc(N3CCN(C(C)=O)CC3)cc(N)c2cc1OC`, the Reduction in the assay on Rattus norvegicus [1] is 4%; in the assay on Rattus norvegicus [2], 7%. Also, the Ki in assay [4] stood at 1.17 nM.
